Laboratory results as given in publication PMC12363518, “Azobenzene-Modified Temperature-Responsive Short Elastin-like Peptides for Photo-Controlled Phase Transition” (ACS Synthetic Biology, 2025).
Numbered stars: 1 amine (or outer) side, 2 acyl side, 3 side chain; on linkers, the order of the positions; unused ones are H or OH. Bridge positions count the residues as written; N and C are the ends. Peptide text beside a SMILES is read from it. I, II: the chains in the order shown. X1 = O=C(c1ccc(N=Nc2ccc(C(=O)[*:2])cc2)cc1)[*:1]

Assays:
[1] = Optical / fluorescence microscopy of coacervates and Rhodamine B-loaded aggregates; assay type: physicochemical
Method: To investigate the morphological properties of the ELP–azobenzene conjugates, a PBS solution of Azb-2(K-F2) was observed by using optical microscopy at different temperatures under light-protected conditions. The Azb-2(K-F2) solution was almost homogeneous at 25 °C (Figure A). However, spherical coacervates of the peptide emerged at 35 °C and then rapidly matured into larger particles with diameters of several micrometers by increasing the temperature to 37 °C (Figure B,C). These particles stably exist under dark conditions (Figure D).
Azb-2(K-F2) was further studied to determine whether the chemical release from the peptide aggregates could be controlled by light irradiation. Azb-2(K-F2) and Rhodamine B (a red fluorescent dye) were heated in PBS to form coacervates, and a stable pellet of the aggregate was obtained by centrifugation. This pellet was composed of Azb-2(K-F2) coacervates containing rhodamine B with diameters of several micrometers, as shown in Figure . The structure of the obtained sample was observed over time by using optical and fluorescence microscopy under irradiation with monochromatic light at a wavelength of 365 nm (Figure ). Before light irradiation, the peptide aggregate containing Rhodamine B was observed as a red-colored amorphous structure with a size of approximately 600–700 μm. When irradiated with UV-A light, spherical particles (several micrometers in diameter) leaked from the surface of the aggregates and the red dye diffused accordingly. This dissociation process was considered to be the reverse of the stepwise phase separation in which ELP formed submicron-ordered aggregates and then matured to larger aggregates with diameters of several micrometers. […] In contrast, the peptide aggregate containing Rhodamine B was stable at 37 °C in the absence of UV-A light (Figure S12).
The morphology of the coacervates of the ELP–azobenzene conjugate Azb-2(K-F2) was observed by optical microscopy. The light field observation was performed using a Leica DM IL LED (Leica Microsystems CMS, Wetzlar, Germany) equipped with HI PLAN 40× (Leica Microsystems CMS), HC PLAN 10× (Leica Microsystems CMS), and a Leica EL6000 external light source (Leica Microsystems CMS). Azb-2(K-F2) was dissolved in PBS buffer at a concentration of 3 mg/mL. Sample imaging was performed at 25, 35, and 37 °C by using a Thermo Plate TP-CHSQM (Tokai Hit Co., Ltd., Shizuoka, Japan). […]
A time-course observation of Azb-2(K-F2) aggregates in the presence of a fluorescent dye was also performed. To the Azb-2(K-F2) solution (in phosphate buffer, pH 7.4, 3 mg/mL) was added Rhodamine B at a final concentration of 50 μM. The resulting solution was incubated at 37 °C for 4 h. Then, the solution was centrifuged for 20 s (6200 rpm) to obtain an aggregate of the peptide as a red pellet. The obtained peptide aggregate was washed with PBS buffer (37 °C, 50 μL, three times) and was used to make a prepared slide. Time-dependent observation of the prepared sample was carried out at 37 °C under irradiation with 365 nm monochromatic light.

[2] = not given; remark: listed apart in the source
[3] = Turbidity measurement (OD600) of temperature-dependent phase separation, Tt; assay type: physicochemical
Method: The ability of the ELP–azobenzene conjugates to self-assemble was investigated by using turbidity measurements. In addition, we evaluated whether the photoisomerization of the azobenzene moieties induced differences in the aggregation ability of these analogues. Each peptide analogue was dissolved in PBS at different concentrations according to its water solubility. To quantitatively evaluate the aggregation ability, the transition temperature (T t) of the peptides was calculated from the change in optical density at a wavelength of 600 nm (OD600) associated with the increasing temperature (Table and Figure ).
The temperature-dependent self-assembly property of synthesized peptides was evaluated by using a JASCO V-660 spectral photometer (JASCO Co.). Each peptide was dissolved in PBS buffer or phosphate buffer solutions at various concentrations. Three types of phosphate buffers with the same ionic strength (μ = 0.100) but different pH (pH 7.4, 2.1, and 11.5) were prepared: phosphate buffer (pH 7.4, 29.4 mM Na2HPO4, 11.7 mM NaH2PO4), phosphate buffer (pH 2.1, 10.0 mM NaH2PO4, 10.5 mM phosphoric acid), and phosphate buffer (pH 11.5, 9.58 mM Na3PO4, 14.2 mM Na2HPO4). Turbidity was measured at 600 nm with increasing or decreasing temperature at a rate of 0.5 °C/min from 5 °C. The measurements were performed for the dark-adapted solution and after successive irradiation with UV light, visible light, and UV light. Each assay was repeated three times with different peptide solutions that were prepared separately. The phase separation property was described by the phase transition temperature (T t), which is the temperature at which the turbidity of the solution reaches half its maximum value.

CC(C)[C@H](NC(=O)CNC(=O)[C@@H]1CCCN1C(=O)[C@H](Cc1ccccc1)NC(=O)CNC(=O)[C@@H](NC(=O)CNC(=O)[C@@H]1CCCN1C(=O)[C@H](Cc1ccccc1)NC(=O)[C@H](CCCCN)NC(=O)c1ccc(N=Nc2ccc(C(=O)N[C@@H](CCCCN)C(=O)N[C@@H](Cc3ccccc3)C(=O)N3CCC[C@H]3C(=O)NCC(=O)N[C@H](C(=O)NCC(=O)N[C@@H](Cc3ccccc3)C(=O)N3CCC[C@H]3C(=O)NCC(=O)N[C@H](C(=O)NCC(=O)O)C(C)C)C(C)C)cc2)cc1)C(C)C)C(=O)NCC(=O)O [Azb-2(K-F2)] (I: KFPGVGFPGVG-OH / II: KFPGVGFPGVG-OH; linker I:N-II:N via X1)
aggregate containing Rhodamine B without UV-A light ([1]; 37 °C, absence of UV-A light (Figure S12)): stable
aggregate containing Rhodamine B under continued UV-A irradiation ([1]; optical and fluorescence microscopy, 37 °C, 365 nm monochromatic light, Rhodamine B 50 μM at loading): completely collapsed
coacervate particles after UV-A irradiation ([1]; optical microscopy, 3 mg/mL in PBS, 37 °C, UV-A 365 nm for 5 min): particles disappeared
coacervate particles after subsequent room light ([1]; optical microscopy, 3 mg/mL in PBS, 37 °C, room light 5 min after UV-A): spherical aggregates reappeared
temperature at which spherical coacervates emerged ([1]; optical microscopy, 3 mg/mL in PBS, light-protected): 35 °C
peak wavelength π–π*: 330 nm
peak wavelength n–π* [2]: 430 nm
Tt,UV (phase transition temperature) ([3]; after "UV" conditions 1 h, PBS pH 7.4, OD600, 0.5 °C/min, Tt at half-maximal turbidity, concentrations as in Table 2, n = 3): 35.08 ± 0.30 °C
Tt,UV–vis (phase transition temperature) ([3]; after "UV–vis" conditions 1 h, PBS pH 7.4, OD600, 0.5 °C/min, Tt at half-maximal turbidity, concentrations as in Table 2, n = 3): 32.55 ± 0.67 °C
Tt,UV–vis–UV (phase transition temperature) ([3]; after "UV–vis–UV" conditions 1 h, PBS pH 7.4, OD600, 0.5 °C/min, Tt at half-maximal turbidity, concentrations as in Table 2, n = 3): 35.94 ± 1.15 °C
Tt, UV in phosphate buffer (PB) ([3]; after UV irradiation, PB pH 7.4 (ionic strength 0.100), 3.00 mg/mL (1.27 mM), OD600): 31.42 ± 0.78 °C
Tt, dark in phosphate buffer (PB) ([3]; dark-adapted, PB pH 7.4 (ionic strength 0.100), Azb-2(K-F2) 3.00 mg/mL (1.27 mM), 2(D-F2)-Azb 1.50 mg/mL (0.66 mM), OD600): 27.57 ± 0.18 °C
Tt,dark (phase transition temperature) ([3]; dark-adapted, PBS pH 7.4, OD600, 0.5 °C/min from 5 °C, Tt at half-maximal turbidity, F2-Azb-F2 100 μM, F2-Azb-F2-NH2 50 μM, Azb-2(K-F2) 1.27 mM, 2(F2-D)-Azb 0.66 mM, n = 3 separately prepared solutions): 32.09 ± 0.14 °C
phase separation in acidic phosphate buffer ([3]; phosphate buffer pH 2.1, Azb-2(K-F2) 1.27 mM, 2(F2-D)-Azb 0.66 mM, turbidity OD600): did not show phase separation
phase separation in neutral phosphate buffer ([3]; phosphate buffer pH 7.4, Azb-2(K-F2) 1.27 mM, 2(F2-D)-Azb 0.66 mM, turbidity OD600): underwent thermoresponsive phase separation
phase separation in basic phosphate buffer ([3]; phosphate buffer pH 11.5, Azb-2(K-F2) 1.27 mM, 2(F2-D)-Azb 0.66 mM, turbidity OD600): did not show phase separation
